Data on 13 compounds can be found in patent US20230117034A1, “PYRAZOLOTRIAZINES” (Bayer Aktiengesellschaft, priority 2019, published 2023).

In one assay the target is T1, CDK2/CycE (Homo sapiens, UniProt P24941).
T1 construct: purchased ProQinase GmbH (Freiburg, Germany); host or cells: insect cells (Sf9)
Kind of assay: CDK2/CycE kinase assay (TR-FRET, 2 mM ATP). In kind it is biochemical. The settings on record: 2 mM ATP (high ATP); median; read-out: CDK2/CyclinE, 2 mM ATP (high ATP), IC50 (median). The text has this:
CDK2/CycE-inhibitory activity of compounds of the present invention was quantified employing the CDK2/CycE TR-FRET assay as described in the following paragraphs.
Recombinant fusion proteins of GST and human CDK2 and of GST and human CycE, expressed in insect cells (Sf9) and purified by Glutathion-Sepharose affinity chromatography, were purchase from ProQinase GmbH (Freiburg, Germany). As substrate for the kinase reaction biotinylated peptide biotin-Ttds-YISPLKSPYKISEG (C-terminus in amid form) was used which can be purchased e.g. form the company JERINI peptide technologies (Berlin, Germany).
For the assay 50 nanoL of a 100 fold concentrated solution of the test compound in DMSO was pipetted into a black low volume 384 well microtiter plate or a black 1536 well microtiter plate (both Greiner Bio-One, Frickenhausen, Germany), 2 microL of a solution of CDK2/CycE in aqueous assay buffer [50 millimol/L Tris/HCl pH 8.0, 10 millimol/L MgCl2, 1.0 millimol/L dithiothreitol, 0.1 millimol/L sodium ortho-vanadate, 0.01% (v/v) Nonidet-P40 (Sigma)] were added and the mixture was incubated for 15 min at 22° C. to allow pre-binding of the test compounds to the enzyme before the start of the kinase reaction. Then the kinase reaction was started by the addition of 3 microL of a solution of adenosine-tri-phosphate (ATP, 3.33 millimol/L=>final conc. in the 5 microL assay volume is 2 millimol/L) and substrate (1.25 micromol/L=>final conc. in the 5 microL assay volume is 0.75 micromol/L) in assay buffer and the resulting mixture was incubated for a reaction time of 25 min at 22° C. The concentration of CDK2/CycE was adjusted depending of the activity of the enzyme lot and was chosen appropriate to have the assay in the linear range, typical concentrations were in the range of 10 ng/ml. The reaction was stopped by the addition of 3 microL of a solution of TR-FRET detection reagents (0.333 micromol/L streptavidine-XL665 [Cisbio Bioassays, Codolet, France] and 1.67 nanomol/L anti-RB(pSer807/pSer8l 1)-antibody from BD Pharmingen [#558389] and 2 nanomol/L LANCE EU-W1024 labeled anti-mouse IgG antibody [Perkin-Elmer, product no. AD0077, as an alternative a Terbium-cryptate-labeled anti-mouse IgG antibody from Cisbio Bioassays can be used]) in an aqueous EDTA-solution (167 millimol/L EDTA, 0.2% (w/v) bovine serum albumin in 100 millimol/L HEPES pH 7.5).
The resulting mixture was incubated 1 h at 22° C. to allow the formation of complex between the phosphorylated biotinylated peptide and the detection reagents. Subsequently the amount of phosphorylated substrate was evaluated by measurement of the resonance energy transfer from the Eu-chelate to the streptavidine-XL. Therefore, the fluorescence emissions at 620 nm and 665 nm after excitation at 350 nm was measured in a TR-FRET reader, e.g. a Pherastar (BMG Labtechnologies, Offenburg, Germany) or a Viewlux (Perkin-Elmer). The ratio of the emissions at 665 nm and at […] was taken as the measure for the amount of phosphorylated substrate. The data were normalised (enzyme reaction without inhibitor=0% inhibition, all other assay components but no enzyme=100% inhibition).
(Time-resolved FRET reads energy transfer from a long-lived donor to a nearby acceptor.)

For assay [1], the target named is T2, CDK12 (nuclear staining in CAL-120 cells) (Homo sapiens, UniProt Q9NYV4).
T2 construct: endogenous in cells; host or cells: CAL-120 human breast cancer cells (DSMZ ACC 459)
T2 sequence (Q9NYV4 whole entry): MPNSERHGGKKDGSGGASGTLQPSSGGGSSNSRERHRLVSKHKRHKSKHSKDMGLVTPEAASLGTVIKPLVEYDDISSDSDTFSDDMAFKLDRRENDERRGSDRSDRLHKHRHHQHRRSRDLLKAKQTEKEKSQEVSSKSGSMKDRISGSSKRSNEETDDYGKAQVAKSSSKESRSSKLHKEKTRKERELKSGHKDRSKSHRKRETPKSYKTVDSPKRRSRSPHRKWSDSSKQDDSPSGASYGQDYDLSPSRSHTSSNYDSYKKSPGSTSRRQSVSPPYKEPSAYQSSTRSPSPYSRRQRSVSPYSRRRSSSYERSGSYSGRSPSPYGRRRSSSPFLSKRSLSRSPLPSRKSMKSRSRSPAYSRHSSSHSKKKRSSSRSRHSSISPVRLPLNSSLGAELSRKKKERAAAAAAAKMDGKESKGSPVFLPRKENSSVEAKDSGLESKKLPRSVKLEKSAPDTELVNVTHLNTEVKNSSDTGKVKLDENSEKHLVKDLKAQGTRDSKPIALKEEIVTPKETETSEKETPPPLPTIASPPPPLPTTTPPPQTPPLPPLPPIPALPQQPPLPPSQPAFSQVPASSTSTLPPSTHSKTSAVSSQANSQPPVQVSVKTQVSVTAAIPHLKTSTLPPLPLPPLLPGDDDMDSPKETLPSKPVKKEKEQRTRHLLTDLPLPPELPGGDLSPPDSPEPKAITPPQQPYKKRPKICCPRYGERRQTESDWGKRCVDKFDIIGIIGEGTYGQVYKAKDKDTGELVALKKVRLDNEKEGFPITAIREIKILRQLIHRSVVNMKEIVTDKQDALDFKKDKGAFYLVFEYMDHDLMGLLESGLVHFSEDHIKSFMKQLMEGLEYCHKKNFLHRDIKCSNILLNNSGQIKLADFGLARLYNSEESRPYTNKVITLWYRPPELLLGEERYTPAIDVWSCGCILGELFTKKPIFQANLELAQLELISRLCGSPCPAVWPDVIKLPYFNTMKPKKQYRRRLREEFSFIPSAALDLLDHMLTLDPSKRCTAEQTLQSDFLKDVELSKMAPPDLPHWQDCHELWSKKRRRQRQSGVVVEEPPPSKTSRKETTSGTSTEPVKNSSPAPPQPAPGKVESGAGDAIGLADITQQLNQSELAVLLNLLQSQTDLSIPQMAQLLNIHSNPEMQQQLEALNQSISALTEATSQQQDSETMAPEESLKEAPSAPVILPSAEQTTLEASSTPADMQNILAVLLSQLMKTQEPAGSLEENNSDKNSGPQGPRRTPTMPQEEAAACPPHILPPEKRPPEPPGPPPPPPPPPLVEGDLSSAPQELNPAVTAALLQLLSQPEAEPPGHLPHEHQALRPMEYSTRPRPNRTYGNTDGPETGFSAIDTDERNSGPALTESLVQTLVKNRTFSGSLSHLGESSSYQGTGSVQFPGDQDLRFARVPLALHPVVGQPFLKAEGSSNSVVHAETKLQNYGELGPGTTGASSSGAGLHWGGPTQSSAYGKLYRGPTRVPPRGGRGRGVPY
T2 sequence (O75909 whole entry partner): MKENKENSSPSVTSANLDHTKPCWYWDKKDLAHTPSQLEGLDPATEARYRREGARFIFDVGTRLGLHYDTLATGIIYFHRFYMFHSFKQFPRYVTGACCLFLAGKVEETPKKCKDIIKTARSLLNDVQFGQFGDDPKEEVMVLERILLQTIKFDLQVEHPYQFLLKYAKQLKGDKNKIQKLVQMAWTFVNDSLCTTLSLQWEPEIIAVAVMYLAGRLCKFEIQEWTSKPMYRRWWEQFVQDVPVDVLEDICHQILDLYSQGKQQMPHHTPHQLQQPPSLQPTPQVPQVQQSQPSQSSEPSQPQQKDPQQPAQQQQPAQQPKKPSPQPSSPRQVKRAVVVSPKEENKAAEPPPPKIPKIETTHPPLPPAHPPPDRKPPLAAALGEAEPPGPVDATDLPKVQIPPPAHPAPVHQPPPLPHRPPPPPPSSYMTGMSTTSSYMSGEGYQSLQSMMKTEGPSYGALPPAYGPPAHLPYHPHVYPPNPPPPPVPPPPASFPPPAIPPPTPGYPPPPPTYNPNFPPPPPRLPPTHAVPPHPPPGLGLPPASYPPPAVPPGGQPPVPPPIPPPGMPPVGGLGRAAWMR
Kind of assay: CDK12 nuclear protein level: immunofluorescence/high content analysis (CAL-120). In kind it is cell-based. The settings on record: for DC50: CAL-120 cells, 24 h, immunofluorescence, 50% reduction of nuclear CDK12 staining intensity, median, read-out: CDK12 degradation IF, DC50- [mol/l] (median); for (IC50 CDK12 high ATP) to (Degradation DC50 CDK12) ratio: ratio of IC50 CDK12 high ATP kinase assay to DC50 CDK12 degradation (IF, CAL-120). The method, then: In the context of the present invention, the term “DC50 CDK12” refers to the DC50 values obtained according to the assay described in this section (7) herein below, i.e. the DC50 values for the degradation of CDK12.
Plates are then incubated for 24 h at 37° C. in an humidified incubator and fixed with 4% PFA for 10 min. […] Nuclear and cytoplasmic intensity as well as the nuclear/cytoplasmic intensity ratio is determined by automated image analysis using custom generated scripts (MetaXpress). Data is then transferred to Genedata Screener software, normalized to DMSO and control and DC50 values (degrading concentration to achieve 50% reduction of nuclear CDK12 staining intensity relative to controls) are reported.

Assay [2] has as its system BRCA1 mRNA expression in MDA-MB-231 cells. The assay can be described thus: qRT-PCR assay: BRCA1 mRNA expression in MDA-MB-231. Format: cell-based, human. The settings on record: Homo sapiens, MDA-MB-231, Inhibition of BRCA1 mRNA expression in MDA-MB-231 cells; median; read-out: RTqPCR-MDA-MB-231, IC50, BRCA1 (median). The procedure: 3. qRT-PCR Assay: BRCA, ATR, MCL1 in MDA-MB-231, CAL-120
Tissue cultured human MDA-MB-231 human breast cancer cells were plated in 500 microL per well at 200,000 cells/well in a 24 well microtiter plate. After 24 h, the cells were exposed continuously for 24 h to test substances (substances were added with Tecan HP 0300 Dispenser). RNA was prepared using Qiagen RNeasy MiniKit (#74106), RNA was quantified using a NanoDrop Equipment, and 600 nano gamms of RNA was coverted to cDNA using a SuperScript VILO kit (Thermofisher #11755050) followed by qPCR amplification. BRCA1 and ATR gene expression was measured by RT-qPCR and normalised to GAPDH housekeeping gene expression. qPCR primer sets have been purchased from Thermo Fisher Scientific/Applied Biosystems: BRCA1, #Hs 01556193; ATR, #Hs 00992123; GAPDH, #Hs 03929097.

`Cc1ccc2[nH]c(CNc3nc(N4CCOCC4)nc4c(Br)cnn34)nc2c1` [Example 157, 8-bromo-N-[(5-methyl-1H-benzimidazol-2-yl)methyl]-2-(morpholin-4-yl)pyrazolo[1,5-a][1,3,5]triazin-4-amine]: the IC50 on CDK2/CycE was found to be 3020 nM. Moreover, in assay [1], the DC50 was 0.62 nM and the “(IC50 CDK12 high ATP) to (Degradation DC50 CDK12) ratio” value turned out to be 1089. The IC50 in assay [2] came to 0.903 nM.

`COc1ccc2[nH]c(CNc3nc(N4C[C@@H](C)O[C@@H](C)C4)nc4c(Br)cnn34)nc2c1` [Example 124, 8-bromo-2-[(2R, 6S)-2,6-dimethylmorpholin-4-yl]-N-[(5-methoxy-1H-benzimidazol-2-yl)methyl]pyrazolo[1,5-a][1,3,5]triazin-4-amine]: the IC50 at CDK2/CycE was 8970 nM. Further, in assay [1], the DC50 amounted to 0.768 nM and the “(IC50 CDK12 high ATP) to (Degradation DC50 CDK12) ratio” value is listed as 636. Also, the IC50 in assay [2] amounted to 4.66 nM.

On to `Brc1cnn2c(NCc3nc4ccccc4[nH]3)nc(N3CCN4CCC[C@H]4C3)nc12` [Example 148, N-[(1H-benzimidazol-2-yl)methyl]-8-bromo-2-[(8aS)-hexahydropyrrolo[1,2-a]pyrazin-2 (1 H)-yl]pyrazolo[1,5-a][1,3,5]triazin-4-amine], for which the IC50 at CDK2/CycE stood at 12600 nM. Moreover, in assay [1], the DC50 turned out to be 16 nM and the “(IC50 CDK12 high ATP) to (Degradation DC50 CDK12) ratio” value is recorded as 677. Moreover, the IC50 in assay [2] stood at 87.6 nM.

As for `C[C@@H]1CN(c2nc(NCc3nnc(-c4ccccc4)[nH]3)n3ncc(Br)c3n2)C[C@H](C)N1` [Example 127, 8-bromo-2-[(3R,5S)-3,5-dimethylpiperazin-1-yl]-N-[(5-phenyl-4H-1,2,4-triazol-3-yl)methyl]pyrazolo[1,5-a][1,3,5]triazin-4-amine], the IC50 at CDK2/CycE was over 20000 nM. In addition, in assay [1], the DC50 was found to be 5.1 nM and the “(IC50 CDK12 high ATP) to (Degradation DC50 CDK12) ratio” value worked out at 1905. In addition, the IC50 in assay [2] was found to be 16.2 nM.

Consider `CC(C)c1cnn2c(NCc3nc4ccccc4[nH]3)nc(N3CCOC[C@@H]3C)nc12` [Example 6, N-[(1H-benzimidazol-2-yl)methyl]-2-[(3S)-3-methylmorpholin-4-yl]-8-(propan-2-yl)pyrazolo[1,5-a][1,3,5]triazin-4-amine], for which the IC50 amounted to 2010 nM at CDK2/CycE and 5.43 nM in assay [2]. Further, the DC50 in assay [1] is 3.32 nM. In addition, the “(IC50 CDK12 high ATP) to (Degradation DC50 CDK12) ratio” value in assay [1] is given as 537.

In the case of `C[C@@H]1CN(c2nc(NCc3nnc(-c4ccccc4)[nH]3)n3ncc(Br)c3n2)C[C@H](C)N1C` [Example 125, 8-bromo-N-[(5-phenyl-4H-1,2,4-triazol-3-yl)methyl]-2-[(3R,5S)-3,4,5-trimethylpiperazin-1-yl]pyrazolo[1,5-a][1,3,5]triazin-4-amine], the IC50 at CDK2/CycE came out at 13200 nM; in assay [2] it was 61.1 nM. Also, the DC50 in assay [1] stood at 6.3 nM. Besides, the “(IC50 CDK12 high ATP) to (Degradation DC50 CDK12) ratio” value in assay [1] is 1724.

Consider `Brc1cnn2c(NCc3nc4ccccc4[nH]3)nc(N3CCOCC3C3CC3)nc12` (stereo not shown) [Example 117, N-(1H-benzimidazol-2-ylmethyl)-8-bromo-2-(3-cyclopropylmorpholin-4-yl)pyrazolo[1,5-a][1,3,5]triazin-4-amine], for which the IC50 on CDK2/CycE is 4660 nM. In assay [1], the DC50 worked out at 3.77 nM and the “(IC50 CDK12 high ATP) to (Degradation DC50 CDK12) ratio” value stood at 1278. For the same compound, the IC50 in assay [2] came out at 121 nM.

In the case of `Brc1cnn2c(NCc3nc4ccccc4[nH]3)nc(N3C[C@@H]4CCCN[C@@H]4C3)nc12` [Example 146, N-[(1H-benzimidazol-2-yl)methyl]-8-bromo-2-[(4aS,7aS)-octahydro-6H-pyrrolo[3,4-b]pyridin-6-yl]pyrazolo[1,5-a][1,3,5]triazin-4-amine], the IC50 at CDK2/CycE worked out at 7110 nM. For the same compound, in assay [1], the DC50 was 3.82 nM and the “(IC50 CDK12 high ATP) to (Degradation DC50 CDK12) ratio” value worked out at 2320. In addition, the IC50 in assay [2] was 16.1 nM.

As to `Brc1cnn2c(NCc3nnc(-c4ccccc4)[nH]3)nc(N3C[C@@H]4C[C@H]3CO4)nc12` [Example 120, 8-bromo-2-[(1S,4S)-2-oxa-5-azabicyclo[2.2.1]heptan-5-yl]-N-[(5-phenyl-4H-1,2,4-triazol-3-yl)methyl]pyrazolo[1,5-a][1,3,5]triazin-4-amine], the IC50 was determined as 15400 nM on CDK2/CycE and 30 nM in assay [2]. Further, the DC50 in assay [1] turned out to be 5.08 nM. Besides, the “(IC50 CDK12 high ATP) to (Degradation DC50 CDK12) ratio” value in assay [1] is given as 2588.

Turning to `c1ccc(-c2cnn3c(NCc4nc5ccccc5[nH]4)nc(N4CCOCC4)nc23)cc1` [Example 104, N-[(1H-benzimidazol-2-yl)methyl]-2-(morpholin-4-yl)-8-phenylpyrazolo[1,5-a][1,3,5]triazin-4-amine], the IC50 at CDK2/CycE was over 20000 nM; in assay [2], 30 nM. For the same compound, the DC50 in assay [1] is 15.7 nM. Moreover, the “(IC50 CDK12 high ATP) to (Degradation DC50 CDK12) ratio” value in assay [1] is over 1272.

`C[C@H]1CN(c2nc(NCc3nnc(-c4ccccc4)[nH]3)n3ncc(Br)c3n2)CCN1C.O=CO` [Example 122, 8-bromo-2-[(3S)-3,4-dimethylpiperazin-1-yl]-N-[(5-phenyl-4H-1,2,4-triazol-3-yl)methyl]pyrazolo[1,5-a][1,3,5]triazin-4-amine formate]: the IC50 at CDK2/CycE worked out at 6720 nM; in assay [2], 24.6 nM. Further, the DC50 in assay [1] was found to be 2.47 nM. Also, in assay [1], the “(IC50 CDK12 high ATP) to (Degradation DC50 CDK12) ratio” value is over 8081.

Take `Brc1cnn2c(NCc3nc4ccccc4[nH]3)nc(N3CCNCC3)nc12` [Example 128, N-[(1H-benzimidazol-2-yl)methyl]-8-bromo-2-(piperazin-1-yl)pyrazolo[1,5-a][1,3,5]triazin-4-amine]: the IC50 on CDK2/CycE was determined as 9630 nM. In addition, in assay [1], the DC50 turned out to be 1.37 nM and the “(IC50 CDK12 high ATP) to (Degradation DC50 CDK12) ratio” value came out at 7939. Besides, the IC50 in assay [2] worked out at 14.6 nM.

As for `CC(C)c1cnn2c(NCc3nc4ccccc4[nH]3)nc(NCC(C)(C)O)nc12` [Example 10, 1-{[4-{[(1H-benzimidazol-2-yl)methyl]amino}-8-(propan-2-yl)pyrazolo[1,5-a][1,3,5]triazin-2-yl]amino}-2-methylpropan-2-ol], the IC50 on CDK2/CycE stood at 874 nM. Further, in assay [1], the DC50 came out at 6.85 nM and the “(IC50 CDK12 high ATP) to (Degradation DC50 CDK12) ratio” value came out at 1277. In addition, the IC50 in assay [2] turned out to be 25.3 nM.
